In ChEMBL document CHEMBL2384972, “Tricyclic Pyrimidines As Inhibitors of DYRK1A/DYRK1B As Potential Treatment for Down's Syndrome or Alzheimer's Disease” (ACS Med Chem Lett, 2013):

Tests used:
[1] = biological target: Dual specificity tyrosine-phosphorylation-regulated kinase 1B (Homo sapiens, UniProt Q9Y463); assay: Inhibition of recombinant DYRK1B (unknown origin) after 120 mins in presence of [33P]-ATP
[2] = biological target: Dual specificity tyrosine-phosphorylation-regulated kinase 1A (Homo sapiens, UniProt Q13627); assay: Inhibition of recombinant DYRK1A (unknown origin) after 120 mins in presence of [33P]-ATP

Chain of Dual specificity tyrosine-phosphorylation-regulated kinase 1B (Q9Y463 whole entry): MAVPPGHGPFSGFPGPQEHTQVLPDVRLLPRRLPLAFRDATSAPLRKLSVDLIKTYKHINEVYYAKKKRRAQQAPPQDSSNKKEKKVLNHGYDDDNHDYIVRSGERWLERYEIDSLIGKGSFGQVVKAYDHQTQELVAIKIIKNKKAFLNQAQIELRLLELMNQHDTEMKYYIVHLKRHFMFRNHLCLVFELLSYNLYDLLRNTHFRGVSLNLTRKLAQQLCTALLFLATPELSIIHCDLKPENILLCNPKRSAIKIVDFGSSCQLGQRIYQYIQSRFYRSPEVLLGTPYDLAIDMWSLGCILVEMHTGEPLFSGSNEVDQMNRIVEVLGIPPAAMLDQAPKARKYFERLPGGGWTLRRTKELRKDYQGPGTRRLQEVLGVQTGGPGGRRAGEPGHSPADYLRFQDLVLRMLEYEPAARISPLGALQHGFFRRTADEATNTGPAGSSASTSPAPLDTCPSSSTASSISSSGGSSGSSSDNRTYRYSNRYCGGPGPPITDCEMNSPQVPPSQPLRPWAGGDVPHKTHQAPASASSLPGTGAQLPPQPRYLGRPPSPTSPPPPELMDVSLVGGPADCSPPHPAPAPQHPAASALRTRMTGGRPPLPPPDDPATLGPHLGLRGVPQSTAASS

COC(=N)c1nc2ccc3ncnc(Nc4ccc(Br)cc4F)c3c2s1
IC50 [1]: 0.24 nM
IC50 [2]: 0.16 nM

COC(=N)c1nc2ccc3ncnc(Nc4ccc(F)cc4Br)c3c2s1
IC50 [1]: 6.55 nM
IC50 [2]: 3.6 nM
